According to patent publication US20120282187A1 (BOEHRINGER INGELHEIM INTERNATIONAL GMBH, priority 2008, published 2012):
Several values for one entry are separate records, joined by “and”; a condition that tells them apart may be missing. Equal values may be shown once. Entries after “also recorded” stand apart in the source; their conditions may differ. Read-outs that look alike come from different tables or passages of the source.

Tests used:
[1] = tested on: activated partial thromboplastin time (aPTT), ecarin clotting time, and thrombin clotting time; assay: Clotting time tests
Description: The anticoagulant effects parallel plasma concentrations.

[2] = Clinical pharmacokinetics and pharmacodynamics of dabigatran etexilate; assay type: in vivo
Description: Ezekowitz M D, et al., Dabigatran with or without concomitant aspirin compared with warfarin alone in patients with nonvalvular atrial fibrillation (PETRO study), Am. […] The PETRO study is described below.
As noted above, management of warfarin therapy is complex, and failure to adequately monitor patients is associated with risk. […] It also interacts with many common foods, drugs and alcohol which alter its therapeutic effect, putting patients at risk of either a bleeding or thrombotic event. Therefore, warfarin therapy requires careful individualized dosing and frequent monitoring. The significant limitations of VKAs have created a need for an oral anticoagulant with a rapid onset of action, minimal drug interactions, and a predictable anticoagulation effect that needs no monitoring.
Peak levels are seen within 2-3 hours of oral administration. […] Steady-state is reached within 2-3 days with a twice daily regimen. […] The remainder undergoes conjugation with glucuronic acid to form acylglucuronides which are excreted primarily in the bile.

[3] = tested on: patients with atrial fibrillation
Description: The PETRO-Ex study was conducted in 52 centers in the United States, Denmark, The Netherlands, and Sweden.
PETRO-Ex began while the PETRO study was ongoing and investigators were initially kept blinded to patient treatment group until PETRO was completed. Unblinding investigators to patient treatment was possible thereafter.
Data were summarized descriptively; no hypothesis was to be tested. Events were analyzed on the basis of the treatment at onset. Incidences were reported as of patients with events as well as normalized to 100 patient-years on the respective treatment.
Patients who were down titrated to 50 mg q.d. based on a glomerular filtration rate≦50 mL/min during PETRO were excluded from the long-term trial; patients down-titrated in other dose levels remained on the q.d. treatment at that dose.
The total exposure reflects both trials, PETRO and PETRO-Ex, together.

[4] = tested on: patients with chronic atrial fibrillation; assay: PETRO phase 2 12-week dose finding study; assay type: in vivo, human; details: in vivo
Description: Primary endpoints were bleeding events and changes in D-dimer. […] Minor bleeding was dose related.

[5] = tested on: patients with atrial fibrillation at risk of stroke; assay: RELY clinical trial (Randomized Evaluation of Long-term Anticoagulation Therapy); assay type: in vivo; details: for Stroke, systemic embolism, pulmonary embolism, myocardial infarction death or major bleed, Rate: net benefit
Description: The primary study outcome was stroke or systemic embolism. The primary safety outcome was major hemorrhage. Secondary outcomes were stroke, systemic embolism and death. […] All other bleeding was considered minor.
All analyses were based on intention-to-treat.

[6] = individual patients with LFT abnormalities, # = with concomitant Bilirubin elevation to >2xULN

Which results are given for [H]/N=C(/N)c1ccc(NCc2nc3cc(C(=O)N(CCC(=O)O)c4ccccn4)ccc3n2C)cc1 [Dabigatran]?
prolongation of activated partial thromboplastin time (aPTT), ecarin clotting time, and thrombin clotting time [1]: dose dependent prolongation; plasma half life ([2]; after multiple doses): 12 to 17 h; time to steady-state ([2]; human, in vivo): 2 to 3 days; time to peak levels ([2]; oral administration): 2 to 3 h; fatal major bleeds, number ([3]; 150 mg b.i.d.): 4; fatal major bleeds, number ([3]; 300 mg q.d.): 1; fatal bleeding events ([3]; all doses): 0.5 % per year; fatal major bleeds, number ([3]; all doses): five; intracranial bleed rate ([3]; all doses): 0.4 % per year; Final Outcome/Comment ([3]; individual patients with LFT abnormalities): Fatal; also recorded: Recovered; LFT abnormality ALT/ULN [3, 6]: >5x (4×) and >5x^# (2×) and >3x (5×) and >3x^#; LFT abnormality AST/ULN [3, 6]: >5x^# (4×) and >5x (4×) and >3x (5×); LFT abnormality resolved after stopping of dabigatran, number of cases ([3]; of the 16 on treatment cases): 5; LFT abnormality resolved with continuation of dabigatran, number of cases ([3]; of the 16 on treatment cases): 10; change in D-dimer levels [4]: comparable to warfarin; Myocardial Infarction, Rate ([5]; 110 mg b.i.d.): 0.73 /100 Person Years; Rates of hemorrhagic stroke ([5]; 110 mg b.i.d.): 0.12 % per year; Stroke, Ischemic or Unspecified, Rate ([5]; 110 mg b.i.d.): 1.35 /100 Person Years; net benefit-risk outcome (major vascular events, major bleeding and death) rate ([5]; 110 mg b.i.d.): 7.37 % per year; Myocardial Infarction, Rate ([5]; 150 mg b.i.d.): 0.74 /100 Person Years; Rates of hemorrhagic stroke ([5]; 150 mg b.i.d.): 0.10 % per year; net benefit-risk outcome (major vascular events, major bleeding and death) rate ([5]; 150 mg b.i.d.): 7.22 % per year; rates of stroke and systemic embolism compared to warfarin ([5]; 150 mg b.i.d.): lower rates; First Hospitalization, RR ([5]; Dabigatran 110 mg vs. Warfarin): 0.92; Myocardial Infarction, RR ([5]; Dabigatran 110 mg vs. Warfarin): 1.35; Non-disabling Stroke Modified Rankin 0-2, RR ([5]; Dabigatran 110 mg vs. Warfarin): 0.87; Pulmonary embolism, RR ([5]; Dabigatran 110 mg vs. Warfarin): 1.26; Stroke or systemic embolism, RR ([5]; Dabigatran 110 mg vs. Warfarin): 0.91; Stroke, Hemorrhagic, RR ([5]; Dabigatran 110 mg vs. Warfarin): 0.31; Stroke, Ischemic or Unspecified, RR ([5]; Dabigatran 110 mg vs. Warfarin): 1.12; Stroke, RR ([5]; Dabigatran 110 mg vs. Warfarin): 0.92; Stroke, Ischemic or Unspecified, RR ([5]; Dabigatran 150 mg vs. 110 mg): 0.68; Stroke, RR ([5]; Dabigatran 150 mg vs. 110 mg): 0.70; First Hospitalization, RR ([5]; Dabigatran 150 mg vs. Warfarin): 0.97; Myocardial Infarction, RR ([5]; Dabigatran 150 mg vs. Warfarin): 1.38; Non-disabling Stroke Modified Rankin 0-2, RR ([5]; Dabigatran 150 mg vs. Warfarin): 0.62; Pulmonary embolism, RR ([5]; Dabigatran 150 mg vs. Warfarin): 1.61; Stroke or systemic embolism, RR ([5]; Dabigatran 150 mg vs. Warfarin): 0.66; Stroke, Hemorrhagic, RR ([5]; Dabigatran 150 mg vs. Warfarin): 0.26; Stroke, Ischemic or Unspecified, RR ([5]; Dabigatran 150 mg vs. Warfarin): 0.76; Stroke, RR ([5]; Dabigatran 150 mg vs. Warfarin): 0.64; primary outcome compared to warfarin ([5]; both doses (110 mg and 150 mg b.i.d.)): non-inferior to warfarin; Stroke, systemic embolism, pulmonary embolism, myocardial infarction death or major bleed, Rate ([5]; 110 mg b.i.d.): 7.37 /100 Person Years; Stroke, systemic embolism, pulmonary embolism, myocardial infarction death or major bleed, Rate ([5]; 150 mg b.i.d.): 7.22 /100 Person Years
